Measurements from the supplement of paper PMC10307832.

Key:
Test in all cases: relative viability (nuclei count vs DMSO), 5 days (fraction); higher = more cells survive
[1] = compound: N#CC[C@H](C1CCCC1)n1cc(-c2ncnc3[nH]ccc23)cn1 [Ruxolitinib] + NC(=O)Nc1cc(-c2cccc(F)c2)sc1C(=O)N[C@H]1CCCNC1 [AZD7762] (partner 0.2 µM)
In short: (§1)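 Relative viability is defined as nuclei in treated wells over nuclei in vehicle wells. Duplicate plates were run and medians reported. Lung cancer cell lines in 1536-well plates were dosed by pin tool one day after seeding, with one drug or with a fixed anchor-drug dose plus five library-drug doses (not always all listed) in √10 steps, and nuclei were counted after 5 days.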

[2] = compound: CS(=O)(=O)c1ccc(C(=O)Nc2ccc(Cl)c(-c3ccccn3)c2)c(Cl)c1 [Vismodegib] + CC1(C)CCC(c2ccc(Cl)cc2)=C(CN2CCN(c3ccc(C(=O)NS(=O)(=O)c4ccc(N[C@H](CCN5CCOCC5)CSc5ccccc5)c(S(=O)(=O)C(F)(F)F)c4)cc3)CC2)C1 [Navitoclax] (partner 0.5 µM)
In short: as §1

[3] = compound: N#CC[C@H](C1CCCC1)n1cc(-c2ncnc3[nH]ccc23)cn1 [Ruxolitinib] + O=C(CCCCCCC(=O)Nc1ccccc1)NO [Vorinostat] (partner 1 µM)
In short: as §1

[4] = compound: N#CC[C@H](C1CCCC1)n1cc(-c2ncnc3[nH]ccc23)cn1 [Ruxolitinib] + Nc1ncn([C@H]2C[C@H](O)[C@@H](CO)O2)c(=O)n1 [Decitabine] (partner 2 µM)
In short: as §1

Row | Cell Line | relative viability ([1]; first compound 0.08 µM) | relative viability ([1]; first compound 0.253 µM) | relative viability ([1]; first compound 0.8 µM) | relative viability ([1]; first compound 2.53 µM) | relative viability ([1]; first compound 8 µM) | relative viability ([2]; first compound 0.8 µM) | relative viability ([2]; first compound 8 µM) | relative viability ([3]; first compound 0.08 µM) | relative viability ([3]; first compound 0.253 µM) | relative viability ([3]; first compound 0.8 µM) | relative viability ([3]; first compound 2.53 µM) | relative viability ([3]; first compound 8 µM) | relative viability ([4]; first compound 0.08 µM) | relative viability ([4]; first compound 0.253 µM) | relative viability ([4]; first compound 0.8 µM) | relative viability ([4]; first compound 2.53 µM) | relative viability ([4]; first compound 8 µM) | relative viability ([2]; first compound 0.08 µM) | relative viability ([2]; first compound 0.253 µM) | relative viability ([2]; first compound 2.53 µM)
1 | LCLC-97TM1 | 0.401 | 0.267 | 0.317 | 0.287 | 0.53 | 0.443 | 0.63 | 0.741 | 0.604 | 0.734 | 0.722 | 0.63 | 0.221 | 0.242 | 0.22 | 0.265 | 0.222 |  |  | 
2 | NCI-H1944 | 0.576 | 0.612 | 0.642 | 0.469 | 0.68 | 1.04 | 0.999 | 0.63 | 0.537 | 0.605 | 0.483 | 0.521 | 0.445 | 0.394 | 0.467 | 0.393 | 0.409 | 0.994 | 1.05 | 1.02
3 | NCI-H1975 | 0.669 | 0.643 | 0.675 | 0.67 | 0.501 | 1.22 | 1.09 | 0.736 | 0.633 | 0.691 | 0.59 | 0.483 | 0.329 | 0.384 | 0.36 | 0.304 | 0.222 | 1.2 | 1.06 | 1.08
4 | EPLC-272H | 0.321 | 0.267 | 0.244 | 0.285 | 0.316 | 1.09 | 1.09 | 0.586 | 0.447 | 0.463 | 0.249 | 0.337 | 0.408 | 0.367 | 0.439 | 0.414 | 0.36 | 1.01 | 1.2 | 1.09
5 | EMC-BAC-2 | 1.07 | 1.03 | 1.3 | 1.08 | 0.695 | 1.23 | 1.19 | 0.412 | 0.432 | 0.443 | 0.621 | 0.279 | 0.915 | 0.916 | 1.14 | 0.921 | 0.851 | 1.11 | 1.15 | 1.13
6 | PC-3 [JPC-3] |  | 0.82 | 0.866 | 0.946 | 0.814 | 0.769 | 0.778 |  | 0.778 | 0.809 | 0.875 | 0.696 |  | 0.856 | 0.899 | 0.754 | 0.718 | 0.758 | 0.789 | 0.768
7 | NCI-H1666 | 0.869 | 0.868 | 0.921 | 0.841 | 0.974 | 1.15 | 0.934 | 1.05 | 1.07 | 1.1 | 1.08 | 1.14 | 0.601 | 0.666 | 0.753 | 0.678 | 0.721 | 1.08 | 1.02 | 0.936
